Read-outs that look alike come from different tables or passages of the source.
Tests used:
[1] = taken hours after ingestion; cited from earlier work
[2] = molecular target: T1, hDAT (Homo sapiens, UniProt Q01959); assay: Release of preloaded [^3H]DA from HEK-hDAT cells; type: cell-based; conditions: for % maximum release, hDAT [^3H]DA: relative to maximum release induced by METH (1–10 μM)
[3] = molecular target: T2, hSERT (Homo sapiens, UniProt P31645); assay: Release of preloaded [^3H]5-HT from HEK-hSERT cells; type: cell-based; conditions: for % maximum release, hSERT [^3H]5-HT: relative to maximum release induced by METH (0.3–1 mM)
[4] = molecular target: T3, hNET (Homo sapiens, UniProt P23975); assay: Release of preloaded [^3H]NE from HEK-hNET cells; type: cell-based; conditions: for % maximum release, hNET [^3H]NE: relative to maximum release induced by METH (0.3–1 μM)
[5] = molecular target: T2, hSERT; assay: Inhibition of [^125I]RTI-55 binding to hSERT
[6] = molecular target: T3, hNET; assay: biochemical; type: binding
[7] = molecular target: T4, 5-HT2A receptor (Homo sapiens, UniProt P28223); assay: cell-based; type: cell-based; conditions: for Selectivity (functional ratios) 5-HT2A: 5-HT1A / Selectivity (functional ratios) 5-HT2A: 5-HT2B / Selectivity (functional ratios) 5-HT2A: 5-HT2C: ratio of EC50 values
[8] = molecular target: T5, human 5-HT1A receptor (Homo sapiens, UniProt P08908); assay: 5-HT1A receptor [^3H]8-OH-DPAT radioligand binding
T5 sequence (P08908 1-422): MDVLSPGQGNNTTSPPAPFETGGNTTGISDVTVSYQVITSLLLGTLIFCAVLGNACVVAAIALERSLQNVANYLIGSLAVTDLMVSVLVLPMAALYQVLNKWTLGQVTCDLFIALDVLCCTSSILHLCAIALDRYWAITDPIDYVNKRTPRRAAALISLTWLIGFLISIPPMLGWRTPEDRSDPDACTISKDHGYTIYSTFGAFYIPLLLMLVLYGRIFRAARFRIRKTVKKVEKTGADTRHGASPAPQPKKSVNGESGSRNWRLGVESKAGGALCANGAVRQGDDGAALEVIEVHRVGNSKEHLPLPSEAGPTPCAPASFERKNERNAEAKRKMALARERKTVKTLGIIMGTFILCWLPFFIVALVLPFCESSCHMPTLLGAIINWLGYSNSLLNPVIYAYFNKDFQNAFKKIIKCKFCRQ

[9] = molecular target: T1, hDAT; assay: Inhibition of [^125I]RTI-55 binding to hDAT
[10] = molecular target: T5, human 5-HT1A receptor; assay: 5-HT1A receptor [^35S]GTPγS binding stimulation; type: biochemical; conditions: for % maximum stimulation, 5-HT1A stimulation of [^35S]GTPγS binding: normalized to the maximal stimulation by 5-HT
[11] = molecular target: T4, 5-HT2A receptor; assay: biochemical; type: binding; conditions: for Selectivity (binding ratios) 5-HT2A : 5-HT1A / Selectivity (binding ratios) 5-HT2A : 5-HT2B / Selectivity (binding ratios) 5-HT2A : 5-HT2C: ratio of Ki values
[12] = molecular target: T6, 5-HT2B receptor (Homo sapiens, UniProt P41595); assay: 5-HT2B receptor inositol monophosphate; type: cell-based; conditions: for % maximum stimulation, 5-HT2B stimulation of IP-1 formation: normalized to the maximal stimulation by 5-HT
[13] = molecular target: T7, 5-HT2C receptor (Homo sapiens, UniProt P28335); assay: cell-based
T7 sequence (P28335 33-458): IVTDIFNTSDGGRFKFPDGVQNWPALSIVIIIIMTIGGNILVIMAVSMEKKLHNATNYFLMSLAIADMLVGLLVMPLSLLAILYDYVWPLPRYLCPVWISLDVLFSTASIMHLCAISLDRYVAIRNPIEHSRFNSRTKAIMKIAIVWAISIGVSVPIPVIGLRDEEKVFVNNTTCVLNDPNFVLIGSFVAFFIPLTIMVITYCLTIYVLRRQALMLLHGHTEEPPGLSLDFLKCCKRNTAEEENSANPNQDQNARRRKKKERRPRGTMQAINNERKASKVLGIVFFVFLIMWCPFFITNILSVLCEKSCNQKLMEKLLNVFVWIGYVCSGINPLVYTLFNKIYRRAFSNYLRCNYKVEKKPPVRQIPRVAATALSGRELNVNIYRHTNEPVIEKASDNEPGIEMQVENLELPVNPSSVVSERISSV

[14] = molecular target: T3, hNET; assay: cell-based
[15] = molecular target: T2, hSERT; assay: Inhibition of [^3H]5-HT uptake by HEK-hSERT cells; type: cell-based
[16] = molecular target: T1, hDAT; assay: Inhibition of [^3H]DA uptake by HEK-hDAT cells; type: cell-based
[17] = molecular target: T6, 5-HT2B receptor; assay: 5-HT2B receptor [^3H]5-HT binding
[18] = read-out: Drug-induced release of [^3H]neurotransmitter EC50, hDAT [^3H]DA, mean ± sem, HEK-hDAT
[19] = read-out: Drug-induced release of [^3H]neurotransmitter EC50, hSERT [^3H]5-HT, mean ± sem, HEK-hSERT
[20] = read-out: Drug-induced release of [^3H]neurotransmitter EC50, hNET [^3H]NE, mean ± sem, HEK-hNET
[21] = read-out: Inhibition of [^125I]RTI-55 binding Ki, hSERT, mean ± sem, HEK-hSERT
[22] = read-out: Inhibition of [^125I]RTI-55 binding Ki, hNET, mean ± sem, HEK-hNET
[23] = read-out: Inhibition of radioligand binding Ki, 5-HT1A [^3H]8OH-DPAT, mean ± sem, recombinant human 5-HT1A in HEK cells, agonist radioligand
[24] = read-out: Inhibition of [^125I]RTI-55 binding Ki, hDAT, mean ± sem, HEK-hDAT
[25] = read-out: EC50, 5-HT1A stimulation of [^35S]GTPγS binding, mean ± sem
[26] = read-out: EC50, 5-HT2B stimulation of IP-1 formation, mean ± sem
[27] = normalized to the maximal stimulation by 5-HT

T2 sequence (P31645 whole entry): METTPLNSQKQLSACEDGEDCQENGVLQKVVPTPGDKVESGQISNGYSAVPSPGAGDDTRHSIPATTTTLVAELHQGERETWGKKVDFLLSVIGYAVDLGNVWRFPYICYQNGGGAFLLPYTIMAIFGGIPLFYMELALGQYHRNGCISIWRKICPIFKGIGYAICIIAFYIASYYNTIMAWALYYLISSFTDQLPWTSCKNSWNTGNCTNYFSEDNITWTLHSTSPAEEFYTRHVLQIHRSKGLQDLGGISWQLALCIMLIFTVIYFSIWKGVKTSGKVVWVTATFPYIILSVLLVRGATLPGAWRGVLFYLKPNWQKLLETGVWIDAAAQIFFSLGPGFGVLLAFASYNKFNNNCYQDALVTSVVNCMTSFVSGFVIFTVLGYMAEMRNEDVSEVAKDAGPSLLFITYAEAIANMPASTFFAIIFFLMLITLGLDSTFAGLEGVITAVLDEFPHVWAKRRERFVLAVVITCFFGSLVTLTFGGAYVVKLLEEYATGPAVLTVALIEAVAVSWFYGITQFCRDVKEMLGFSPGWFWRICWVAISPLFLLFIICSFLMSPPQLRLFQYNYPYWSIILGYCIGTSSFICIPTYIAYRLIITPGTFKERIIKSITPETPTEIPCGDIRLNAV
T6 sequence (P41595 whole entry): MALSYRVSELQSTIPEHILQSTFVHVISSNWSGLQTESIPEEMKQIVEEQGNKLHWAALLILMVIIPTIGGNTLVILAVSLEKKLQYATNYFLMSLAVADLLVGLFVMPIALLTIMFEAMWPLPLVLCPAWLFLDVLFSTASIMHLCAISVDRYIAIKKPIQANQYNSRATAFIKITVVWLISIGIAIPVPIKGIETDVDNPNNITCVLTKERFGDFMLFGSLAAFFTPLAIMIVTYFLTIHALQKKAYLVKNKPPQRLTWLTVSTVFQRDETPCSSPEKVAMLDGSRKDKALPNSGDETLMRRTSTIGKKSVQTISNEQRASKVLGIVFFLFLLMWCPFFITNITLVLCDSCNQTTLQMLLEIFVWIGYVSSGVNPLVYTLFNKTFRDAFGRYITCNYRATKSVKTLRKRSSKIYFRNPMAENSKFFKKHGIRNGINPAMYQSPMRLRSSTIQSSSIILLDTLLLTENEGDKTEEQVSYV
T3 sequence (P23975 whole entry): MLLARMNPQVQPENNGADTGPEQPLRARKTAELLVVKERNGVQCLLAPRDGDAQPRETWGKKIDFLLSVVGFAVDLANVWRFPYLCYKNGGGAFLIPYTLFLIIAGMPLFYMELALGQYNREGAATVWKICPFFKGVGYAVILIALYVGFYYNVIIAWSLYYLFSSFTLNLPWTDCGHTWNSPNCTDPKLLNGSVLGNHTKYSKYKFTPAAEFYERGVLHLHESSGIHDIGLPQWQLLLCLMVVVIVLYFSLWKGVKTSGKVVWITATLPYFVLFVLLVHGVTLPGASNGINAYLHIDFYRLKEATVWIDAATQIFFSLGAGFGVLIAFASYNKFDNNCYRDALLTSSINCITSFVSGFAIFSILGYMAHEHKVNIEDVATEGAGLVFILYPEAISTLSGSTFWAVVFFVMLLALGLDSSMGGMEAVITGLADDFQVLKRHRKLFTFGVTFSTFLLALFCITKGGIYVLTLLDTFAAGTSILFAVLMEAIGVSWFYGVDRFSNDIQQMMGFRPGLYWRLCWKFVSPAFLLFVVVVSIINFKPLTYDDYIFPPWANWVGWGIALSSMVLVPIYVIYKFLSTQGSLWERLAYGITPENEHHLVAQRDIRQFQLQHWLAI
T4 sequence (P28223 whole entry): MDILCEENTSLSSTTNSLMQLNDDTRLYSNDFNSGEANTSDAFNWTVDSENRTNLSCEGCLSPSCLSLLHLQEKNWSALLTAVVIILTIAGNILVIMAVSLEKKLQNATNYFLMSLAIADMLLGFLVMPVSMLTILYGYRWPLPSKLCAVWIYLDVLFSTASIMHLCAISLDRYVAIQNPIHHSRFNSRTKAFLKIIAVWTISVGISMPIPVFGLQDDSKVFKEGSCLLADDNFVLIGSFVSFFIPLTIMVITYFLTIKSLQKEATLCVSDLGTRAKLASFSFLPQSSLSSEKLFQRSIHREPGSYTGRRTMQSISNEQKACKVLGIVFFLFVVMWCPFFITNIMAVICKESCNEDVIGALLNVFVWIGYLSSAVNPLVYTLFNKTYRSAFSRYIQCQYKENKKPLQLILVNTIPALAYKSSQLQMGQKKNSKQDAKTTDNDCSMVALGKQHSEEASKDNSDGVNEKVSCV
T1 sequence (Q01959 whole entry): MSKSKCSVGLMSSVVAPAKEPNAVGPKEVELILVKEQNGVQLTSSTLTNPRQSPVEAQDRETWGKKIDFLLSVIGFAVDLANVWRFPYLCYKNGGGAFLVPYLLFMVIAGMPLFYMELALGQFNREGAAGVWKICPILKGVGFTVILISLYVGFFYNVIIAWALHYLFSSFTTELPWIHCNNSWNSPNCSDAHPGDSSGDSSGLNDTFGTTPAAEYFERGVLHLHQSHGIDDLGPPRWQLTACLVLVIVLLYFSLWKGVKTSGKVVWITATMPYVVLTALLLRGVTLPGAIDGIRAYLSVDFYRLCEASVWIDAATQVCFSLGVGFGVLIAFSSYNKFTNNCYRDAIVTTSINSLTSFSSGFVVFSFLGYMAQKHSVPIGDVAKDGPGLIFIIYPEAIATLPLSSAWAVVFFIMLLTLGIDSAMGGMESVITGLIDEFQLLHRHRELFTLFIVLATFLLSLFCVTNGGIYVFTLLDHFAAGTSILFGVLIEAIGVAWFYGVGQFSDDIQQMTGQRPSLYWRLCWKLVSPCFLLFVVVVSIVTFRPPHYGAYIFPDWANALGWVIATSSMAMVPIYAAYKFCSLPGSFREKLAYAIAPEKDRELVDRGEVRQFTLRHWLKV

Row | Structure (SMILES) | EC50 [2, 18] | % maximum release, hDAT [^3H]DA [2] | EC50 [3, 19] | % maximum release, hSERT [^3H]5-HT [3] | EC50 [4, 20] | % maximum release, hNET [^3H]NE [4] | Ki [5, 21] | Ki [6, 22] | Ki [8, 23] | Ki [9, 24] | % maximum stimulation, 5-HT1A stimulation of [^35S]GTPγS binding [10] | EC50 [10, 25] | % maximum stimulation, 5-HT2B stimulation of IP-1 formation [12] | EC50 [12, 26] | Selectivity (functional ratios) 5-HT2A: 5-HT1A [7] | Selectivity (functional ratios) 5-HT2A: 5-HT2B [7] | Selectivity (functional ratios) 5-HT2A: 5-HT2C [7] | Selectivity (binding ratios) 5-HT2A : 5-HT1A [11] | Selectivity (binding ratios) 5-HT2A : 5-HT2B [11] | Selectivity (binding ratios) 5-HT2A : 5-HT2C [11] | also measured
1 | COc1cc(CCNCc2ccccc2OC)c(OC)cc1Cl [25C-NBOMe] | – | – | – | – | – | – | – | – | – | – | – | – | – | – | – | – | – | – | – | – | Human blood concentration [1]: 2.80 ng/mL
2 | CN[C@@H](C)Cc1ccccc1 [METH, (S+)methamphetamine, reference compound] | 430 ± 150 nM | 104.1 ± 1.3% | 27500 ± 7000 nM | 104.9 ± 6.8% | 152 ± 56 nM | 106.7 ± 3.3% | – | – | – | – | – | – | – | – | – | – | – | – | – | – | –
3 | COc1cc(CC(C)N)c(OC)cc1C (single isomer, unassigned; (-)) [DOM, (-)2,5-dimethoxy-4-methylamphetamine, reference compound] | > 100000 nM | −0.20 ± 0.16% | > 100000 nM | 2.9 ± 3.4% | > 42000 nM | 25.5 ± 2.0% | > 100000 nM | > 100000 nM | 3660 ± 470 nM | > 100000 nM | 74 ± 25% | 12800 ± 4700 nM | 96.2 ± 3.2% | 145 ± 47 nM | – | – | – | – | – | – | % maximum stimulation, 5-HT2A stimulation of IP-1 formation [7]: 39.9 ± 5.4 (3) 94.6 ± 4.1%; EC50 ([7]; read-out: EC50, 5-HT2A stimulation of IP-1 formation): 39.9 nM; Ki ([11]; read-out: Inhibition of radioligand binding Ki, 5-HT2A [^125I]DOI): 18.3 nM
4 | COc1cc([N+](=O)[O-])c(OC)cc1CCNCc1ccccc1OC [25N-NBOMe] | > 100000 nM | −0.89 ± 0.91% | > 100000 nM | −0.25 ± 0.54% | > 38000 nM | 25 ± 15% | 5810 ± 900 nM | 11300 ± 3500 nM | 2260 ± 230 nM | 37900 ± 4600 nM | 35.6 ± 6.6% | 4800 ± 1800 nM | 57.6 ± 8.6% | 47 ± 11 nM | 9400 | 92 | 2.6 | 15700 | 60 | 7.4 | % maximum stimulation, 5-HT2C stimulation of IP-1 formation [13, 27]: 99.4 ± 0.4%; EC50 ([13]; read-out: EC50, 5-HT2C stimulation of IP-1 formation, mean ± sem): 1.32 ± 0.27 nM; % maximum stimulation, 5-HT2A stimulation of IP-1 formation [7, 27]: 87.9 ± 3.4%; EC50 ([7]; read-out: EC50, 5-HT2A stimulation of IP-1 formation, mean ± sem): 0.51 ± 0.19 nM
5 | CCc1cc(OC)c(CCNCc2ccccc2OC)cc1OC [25E-NBOMe, 2-(4-ethyl-2,5-dimethoxyphenyl)-N-(2-methoxybenzyl)ethanamine] | – | 5.8 ± 6.4% | – | 0.21 ± 0.77% | – | 17.1 ± 5.9% | – | – | – | – | – | – | – | – | 27,000 | 47 | 1.9 | 13200 | 8.7 | 2.4 | Ki [5]: 1590 ± 120 nM; Ki [6]: 5400 ± 1000 nM; EC50 [13]: 0.95 ± 0.18 nM; Emax ([13]; read-out: % maximum stimulation, 5-HT2C stimulation of IP-1 formation): 91.8%; EC50 ([7]; EC50, 5-HT2A stimulation of IP-1 formation, mean ± sem): 0.5 ± 0.14 nM; Emax ([7]; read-out: % maximum stimulation, 5-HT2A stimulation of IP-1 formation): 87.1%; EC50 [2]: > 85000 nM; Ki [8]: 1680 ± 350 nM; Ki [9]: 19600 ± 1200 nM; IC50 [14]: 2310 ± 700 nM; IC50 [15]: 1440 ± 140 nM; EC50 [10]: 13700 ± 5600 nM; Emax ([10]; read-out: % maximum stimulation, 5-HT1A stimulation of [^35S]GTPγS binding): 38%; Ki [11]: 0.127 ± 0.019 nM; EC50 [12]: 23.5 ± 6 nM; Emax ([12]; read-out: % maximum stimulation, 5-HT2B stimulation of IP-1 formation): 49.4%; EC50 [3]: > 100000 nM; IC50 [16]: 34000 ± 10000 nM; Ki [17]: 1.11 ± 0.32 nM; EC50 [4]: > 66000 nM

Reference: publication PMC6298744 (Biochemical pharmacology, 2018)
